Our source for the IC50, inhibition in vivo and TGI values is ChEMBL document CHEMBL4422609, “Overview of the Development of Glutaminase Inhibitors: Achievements and Future Directions” (J Med Chem, 2019).

The nature of assay [1]: Inhibition of GAC (unknown origin). On the set-up: species or system Homo sapiens.
The nature of assay [2]: Inhibition of KGA (unknown origin) using glutamine as substrate preincubated for 20 mins followed by substrate addition and measured after 2 hrs. On the set-up: species or system Homo sapiens.
A short description of assay [3]: Inhibition of KGA (unknown origin). Also on record: species or system Homo sapiens.
Assay [4] deals with JIMT-1. In words: Antitumor activity against human JIMT1 cells xenografted in mouse assessed as tumor growth inhibition at 200 mg/kg, po administered BID co-treated with paclitaxel relative to control. The format is functional. As to conditions: JIMT-1, po, read-out: TGI. Background: In xenograft studies the graft and the host belong to different species.
The test system of assay [5] is RPMI-8226. In words: Antitumor activity against human RPMI8226 cells xenografted in mouse assessed as tumor growth inhibition at 200 mg/kg, po administered BID co-treated with pomalidomide relative to control. The format is functional. As to conditions: RPMI-8226, po, read-out: TGI.
Assay [6] relates to NCI-H2122. In words: Antitumor activity against human NCI-H2122 cells harboring KRAS mutant xenografted in mouse assessed as tumor growth inhibition relative to control. The format is functional.
The subject of assay [7] is NCI-H2122. In words: Antitumor activity against human NCI-H2122 cells harboring KRAS mutant xenografted in mouse assessed as tumor growth inhibition co-treated with selumetinib relative to control. The class given is functional.
The test system of assay [8] is RPMI-8226. In words: Antitumor activity against human RPMI8226 cells xenografted in mouse assessed as tumor growth inhibition at 200 mg/kg, po administered BID relative to control. The format is functional. As to conditions: RPMI-8226, po, read-out: TGI.
Assay [9] concerns NCI-H1650. In words: Antitumor activity against human NCI-H1650 cells harboring EGFR mutant xenografted in mouse assessed as tumor growth inhibition relative to control. The format is functional.
Assay [10] relates to JIMT-1. In words: Antitumor activity against human JIMT1 cells xenografted in mouse assessed as tumor growth inhibition at 200 mg/kg, po administered BID relative to control. The class given is functional. The following applies: JIMT-1, po, read-out: TGI.
A short description of assay [11]: Antiproliferative activity against human MDA-MB-231met2 cells. The format is functional, cell-based.
Assay [12] in a line: Antitumor activity against human CTG-0052 cells xenografted in mouse assessed as tumor growth inhibition at 200 mg/kg, po administered BID relative to control. The format is functional. As to conditions: read-out: TGI.
Assay [13] has as its system NCI-H1650. In words: Antitumor activity against human NCI-H1650 cells harboring EGFR mutant xenografted in mouse assessed as tumor growth inhibition co-treated with erlotinib relative to control. The class given is functional.
Assay [14] can be described thus: Inhibition of GAC (unknown origin) by fluorescence labeling-based assay. Also on record: species or system Homo sapiens.
The test system of assay [15] is JIMT-1. In words: Antitumor activity against human JIMT1 cells xenografted in mouse assessed as tumor growth inhibition at 10 mg/kg, po administered every other day for 5 doses relative to control. The class given is functional. As to conditions: JIMT-1, po, read-out: TGI.
The subject of assay [16] is RPMI-8226. In words: Antitumor activity against human RPMI8226 cells xenografted in mouse assessed as tumor growth inhibition at 1 mg/kg, po administered QD relative to control. As to conditions: RPMI-8226, po, read-out: TGI. The format is functional.

For orientation: IC50 means the concentration that inhibits the measured activity by half. High values mean a need for much substance, low ones inhibition by little substance. Consider `CN(C)c1ccc(C2Nc3ccc4ccccc4c3C3=C2C(=O)CC(C)(C)C3)cc1Br` (centres undefined), for which the IC50 in assay [1] was 9300 nM.
`O=C(Cc1ccccc1)Nc1nnc(CCSCCc2nnc(NC(=O)Cc3ccccc3)s2)s1`: the concentration for half-maximal inhibition (IC50) was 160 nM in [2] and 3000 nM in assay [3].
The term TGI denotes the reduction of tumour growth relative to the control group. With `O=C(Cc1cccc(OC(F)(F)F)c1)Nc1ccc(CCCCc2nnc(NC(=O)Cc3ccccn3)s2)nn1`, the inhibition in vivo at 200 mg/kg came to 100% in the assay with JIMT-1 [4]; 97% in the assay on RPMI-8226 [5]; 64% with RPMI-8226 [8]; 54% with JIMT-1 [10]; 61% in assay [12]. The inhibition of tumour growth (TGI) was determined as 46% in the assay with NCI-H2122 [6], 78% in the assay with NCI-H2122 [7], 26% in the assay with NCI-H1650 [9] and 89% in the assay with NCI-H1650 [13]. In addition, the IC50 in assay [1] was 20 nM; in assay [11], 2 to 300 nM.
Regarding `CN(C)c1ccc(C2Nc3ccc4ccccc4c3C3=C2C(=O)CC(C)(C)C3)cc1` (centres undefined), 50000 nM corresponded to half-maximal inhibition in assay [1] (IC50).
The same measure, in the same setting: the same measure for `CC(C)c1ccc(C2Nc3ccc4ccccc4c3C3=C2C(=O)CC(C)(C)C3)cc1` (centres undefined): 20000 nM.
In turn, `CC1(C)CC(=O)C2=C(C1)c1c(ccc3ccccc13)NC2c1ccc(C(C)(C)C)cc1` (centres undefined) returned an IC50 in assay [14] of 10000 nM.
Take `CN(C)c1ccc(C2Nc3ccc(C(C)(C)C)cc3C3=C2C(=O)CC(C)(C)C3)cc1Br` (centres undefined): 4500 nM corresponded to half-maximal inhibition in assay [14] (IC50).
The compound `CN(C)c1ccc(C2Nc3ccc4cc5ccccc5cc4c3C3=C2C(=O)CC(C)(C)C3)cc1Br` (centres undefined) showed an IC50 in [14] of 1500 nM.
Consider `O=C(Cc1ccccc1)Nc1nnc([C@@H]2CCC[C@@H](c3nnc(NC(=O)Cc4ccccc4)s3)C2)s1` (racemic), for which, in assay [2], half-maximal inhibition (IC50) was put at 100 nM.
Take `C#Cc1cccc(Nc2ncnc3cc(OCCOC)c(OCCOC)cc23)c1` [ERLOTINIB]: in the assay on NCI-H1650 [9], the TGI was found to be 66%.
Take `CC(=O)O[C@H]1C(=O)[C@@]2(C)[C@H]([C@H](OC(=O)c3ccccc3)[C@]3(O)C[C@H](OC(=O)[C@H](O)[C@@H](NC(=O)c4ccccc4)c4ccccc4)C(C)=C1C3(C)C)[C@]1(OC(C)=O)CO[C@@H]1C[C@@H]2O` [PACLITAXEL]: the inhibition in vivo at 10 mg/kg in the assay on JIMT-1 [15] came to 73%.
Regarding `Nc1cccc2c1C(=O)N(C1CCC(=O)NC1=O)C2=O` (centres undefined) [POMALIDOMIDE], the inhibition in vivo at 1 mg/kg in the assay on RPMI-8226 [16] was 46%.
For the compound `Cn1cnc2c(F)c(Nc3ccc(Br)cc3Cl)c(C(=O)NOCCO)cc21` [SELUMETINIB], the inhibition of tumour growth (TGI) in the assay on NCI-H2122 [6] came out at 49%.
